Source: patent US20250154156A1, “QUINAZOLINE DERIVATIVE AS KRAS G12C MUTATION INHIBITOR” (Shenzhen Forward Pharmaceuticals Co., Limited, priority 2022, published 2025)
pIC50: −log10 of the molar value.

Tests used:
[1] = target: Ba/F3 (KRAS-G12C-R68S) cells (Homo sapiens, UniProt P01116, G12C/R68S, cells depend on it); assay: Proliferation experiment of Ba/F3 (KRAS-G12C-R68S) cells; format: cell-based; conditions: 72 hours, Cell Titer-Glo, read-out: Test Example 5 IC50
Description: Engineered cell strain Ba/F3 (KRAS-G12C-R68S) was a cell strain constructed by the inventors according to the methods described in Warmuth M. et al, Curr Opin Oncol. […] The cells were grown at 37° C. in a humidified incubator with 5% CO2.
(§1) According to the solution described in Cell Titer-Glo Luminescent cell Viability Assay (Promega catalog number #G7570) of Promega Corporation, the number of living cells in the culture was detected. 90 μL of cells (3,000 cells/well) were cultured in a growth medium in a Corning black transparent bottom 96-well plate and were cultured overnight in a 5% CO2 humidified incubator at 37° C. The compound diluted serially in 100% DMSO was added to the cells by a pipette, and the cells were cultured for another 72 hours. 100 μL of the well-mixed Cell Titer-Glo reagent was added to the cells in the 96-well culture plate to lyse the cells and gently mixed. Subsequently, […] was detected on an Envision microplate detector, and the data of each compound was obtained. Finally, the data was input into a suitable software package (such as Prism) for curve fitting analysis.

[2] = In vitro human liver microsome stability experiment; format: in vitro ADME; conditions: human liver microsomes; for half-life / microsomal CLint: 1 mg/mL microsome protein, NADPH, 37° C.; for microsomal CLint: read-out: CLint(mic); for CLint scaled: scaled to liver
Description: Eight 96-well incubation plates were prepared, named [NT], Blank60, and NCF60, respectively. […] No compound to be tested or control compound was added to the Blank60 plate and samples were taken after 60 minutes of incubation. The NCF60 plate, in which a potassium phosphate buffer was used instead of an NADPH regeneration system solution (Sigma, N0505), was incubated for 60 minutes. […] Only the working solution of microsomes was added to the Blank60 plate, and the incubation plates Blank60, T5, T15, T30, T45, and T60 except TO and NCF60 were then placed in a water bath at 37° C. for pre-incubation for about 10 minutes. To the TO plate sample, 600 μL of a stop solution (acetonitrile:methanol (95:5, v/v) solution containing 100 ng/mL tolbutamide (Sigma, T0891)) was added first, and then an NADPH regeneration system working solution was added. 98 μL of a potassium phosphate buffer was added to each well of the NCF60 plate and incubated for 60 minutes. After the pre-incubation in the incubation plates Blank60, T5, T15, T30, T45, and T60 was complete, 98 μL of the NADPH regeneration system working solution was added to each sample well to initiate the reaction. After an appropriate incubation time (such as 5, 15, 30, 45, and 60 minutes), 600 μL of the stop solution was added to each sample well and control sample well in the Blank60, […] the reaction. All the sample plates were shaken evenly and centrifuged at 3220×g for 20 minutes. 200 μL of each test sample supernatant was taken and diluted into 200 μL of an aqueous solution containing 0.3% formic acid for LC-MS/MS analysis, and 100 μL of the control sample supernatant was taken and diluted into 300 μL of pure water for LC-MS/MS analysis. Calculations were carried out according to the following formulas: […]

[3] = target: Ba/F3 (KRAS-G12C-H95Q) cells (Homo sapiens, UniProt P01116, G12C/H95Q, cells depend on it); assay: Proliferation experiment of Ba/F3 (KRAS-G12C-H95Q) cells; format: cell-based; conditions: 72 hours, Cell Titer-Glo, read-out: Test Example 4 IC50
Description: Engineered cell strain Ba/F3 (KRAS-G12C-H95Q) was a cell strain constructed by the inventors according to the methods described in Warmuth M. et al, Curr Opin Oncol. […] The cells were grown at 37° C. in a humidified incubator with […].
as §1

[4] = system: NCI-H358 cells (KRAS G12C mutant cell line); assay: Proliferation experiment of NCI-H358 cells (Cell Titer-Glo); format: cell-based; conditions: Homo sapiens, 72 hours, read-out: Test Example 1 IC50
Description: as §1, with “(8,000” for “(3,000”

[5] = target: Ba/F3 (KRAS-G12C-Q99L) cells (Homo sapiens, UniProt P01116, G12C/Q99L, cells depend on it); assay: Proliferation experiment of Ba/F3 (KRAS-G12C-Q99L) cells; format: cell-based; conditions: 72 hours, Cell Titer-Glo, read-out: Test Example 6 IC50
Description: Engineered cell strain Ba/F3 (KRAS-G12C-Q99L) was a cell strain constructed by the inventors according to the methods described in Warmuth M. et al, Curr Opin Oncol. […] The cells were grown at 37° C. in a humidified incubator with 5% CO2.
as §1

[6] = system: NCI-H23 cells (KRAS G12C mutant cell line); assay: Proliferation experiment of NCI-H23 cells (Cell Titer-Glo); format: cell-based; conditions: Homo sapiens, 72 hours, read-out: Test Example 2 IC50
Description: Human lung cancer cell line NCI-H23 (ATCC, CRL-5800) was a KRAS G12C mutant cell line.
as §1, with “(8,000” for “(3,000”

[7] = target: Ba/F3 (KRAS-G12C-Y96C) cells (Homo sapiens, UniProt P01116, G12C/Y96C, cells depend on it); assay: Proliferation experiment of Ba/F3 (KRAS-G12C-Y96C) cells; format: cell-based; conditions: 72 hours, Cell Titer-Glo, read-out: Test Example 3 IC50
Description: Engineered cell strain Ba/F3 (KRAS-G12C-Y96C) was a cell strain constructed by the inventors according to the methods described in Warmuth M. et al, Curr Opin Oncol. […] The cells were grown at 37° C. in a humidified incubator with […].
as §1, with “[…]” for “5%”

Ba/F3 (KRAS-G12C-R68S) cells, sequence (P01116 whole entry G12C/R68S): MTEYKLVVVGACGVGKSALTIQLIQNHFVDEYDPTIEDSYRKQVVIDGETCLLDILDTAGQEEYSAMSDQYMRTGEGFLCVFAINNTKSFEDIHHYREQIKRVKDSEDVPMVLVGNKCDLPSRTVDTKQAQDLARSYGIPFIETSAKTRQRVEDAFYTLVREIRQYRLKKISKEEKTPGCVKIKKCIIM
Ba/F3 (KRAS-G12C-H95Q) cells, sequence (P01116 whole entry G12C/H95Q): as the sequence (P01116 whole entry G12C/R68S) above, with S68R, H95Q counted along it
Ba/F3 (KRAS-G12C-Y96C) cells, sequence (P01116 whole entry G12C/Y96C): as the sequence (P01116 whole entry G12C/R68S) above, with S68R, Y96C counted along it
Ba/F3 (KRAS-G12C-Q99L) cells, sequence (P01116 whole entry G12C/Q99L): as the sequence (P01116 whole entry G12C/R68S) above, with S68R, Q99L counted along it

Row | Compound | GI50 [1] [nM] | half-life [2] [min] | microsomal CLint [2] [µL/min/mg] | CLint scaled [2] [mL/min/kg] | GI50 [3] [nM] | pIC50 [4] | GI50 [5] [nM] | pIC50 [6] | GI50 [7] [nM]
1 | C#Cc1cccc2cc(O)cc(-c3c(F)cc4c(N5CCN(C(=O)C(=C)F)[C@@H](CC#N)C5)nc(OCC56CCCN5CCC6)nc4c3F)c12 [Compound 7A, 2-((2S)-4-(7-(8-ethynyl-3-hydroxynaphth-1-yl)-6,8-difluoro-2-((tetrahydro-1H-pyrrolizin-7a(5H)-yl)methoxy)quinazolin-4-yl)-1-(2-fluoroacryloyl)piperazin-2-yl)acetonitrile] | 34.6 | 38.4 | 36.1 | 32.5 | 16.8 | 9.21 | 9.03 | 9.22 | 5.28
2 | C#Cc1cccc2cc(O)cc(-c3c(F)cc4c(N5CCN(C(=O)C(=C)F)[C@@H](CC#N)C5)nc(OC[C@@]56CCCN5C[C@H](F)C6)nc4c3F)c12 [Compound 8A, 2-((2S)-4-(7-(8-ethynyl-3-hydroxynaphth-1-yl)-6,8-difluoro-2-(((2R,7aS)-2-fluorotetrahydro-1H-pyrrolizin-7a(5H)-yl)methoxy)quinazolin-4-yl)-1-(2-fluoroacryloyl)piperazin-2-yl)acetonitrile] | 33.3 | 26.7 | 53 | 49.7 | 17.8 | 9.62 | 11.6 | 9.24 | 3.44
3 | C#Cc1cccc2cccc(-c3ccc4c(N5CCN(C(=O)C(=C)F)[C@@H](CC#N)C5)nc(OCC56CCCN5CCC6)nc4c3F)c12 [Compound 11, (S)-2-(4-(7-(8-ethynylnaphth-1-yl)-8-fluoro-2-((tetrahydro-1H-pyrrolizin-7a(5H)-yl)methoxy)quinazolin-4-yl)-1-(2-fluoroacryloyl)piperazin-2-yl)acetonitrile] | 69.4 | 38.8 | 35.7 | 32.1 | 62.6 | 9.10 | 56.7 | 9.07 | 25.7
4 | C#Cc1c(F)ccc2cc(O)cc(-c3ccc4c(N5CCN(C(=O)C(=C)F)[C@@H](CC#N)C5)nc(OCC56CCCN5CCC6)nc4c3F)c12 [Compound 12, (S)-2-(4-(7-(8-ethynyl-7-fluoro-3-hydroxynaphth-1-yl)-8-fluoro-2-((tetrahydro-1H-pyrrolizin-7a(5H)-yl)methoxy)quinazolin-4-yl)-1-(2-fluoroacryloyl)piperazin-2-yl)acetonitrile] | 51.4 | 30.9 | 56.2 | 49.6 | 41.6 | 9.18 | 24.4 | 8.99 | 26.2
5 | C#Cc1cccc2cccc(-c3c(F)cc4c(N5CCN(C(=O)C(=C)F)[C@@H](CC#N)C5)nc(OCC56CCCN5CCC6)nc4c3F)c12 [Compound 18B, 2-((2S)-4-(7-(8-ethynylnaphth-1-yl)-6,8-difluoro-2-((tetrahydro-1H-pyrrolizin-7a(5H)-yl)methoxy)quinazolin-4-yl)-1-(2-fluoroacryloyl)piperazin-2-yl)acetonitrile] | 29.9 | 44.2 | 35.6 | 33 | 12.8 | 9.30 | 8.92 | 9.17 | 4.89
6 | C=C(F)C(=O)N1CCN(c2nc(OCC34CCCN3CCC4)nc3c(F)c(-c4cc(O)cc5cccc(Cl)c45)c(F)cc23)C[C@@H]1CC#N [Compound 22A, 2-((2S)-4-(7-(8-chloro-3-hydroxynaphth-1-yl)-6,8-difluoro-2-((tetrahydro-1H-pyrrolizin-7a(5H)-yl)methoxy)quinazolin-4-yl)-1-(2-fluoroacryloyl)piperazin-2-yl)acetonitrile] | 34.1 | 39.2 | 35.6 | 33 | 23.9 | 9.33 | 11.1 | 9.12 | 7.23
7 | C#Cc1c(F)ccc2cc(O)cc(-c3c(F)cc4c(N5CCN(C(=O)C(=C)F)[C@@H](CC#N)C5)nc(OC[C@@]56CCCN5C[C@H](F)C6)nc4c3F)c12 [Compound 24A, 2-((2S)-4-(7-(8-ethynyl-7-fluoro-3-hydroxynaphth-1-yl)-6,8-difluoro-2-(((2R,7aS)-2-fluorotetrahydro-1H-pyrrolizin-7a(5H)-yl)methoxy)quinazolin-4-yl)-1-(2-fluoroacryloyl)piperazin-2-yl)acetonitrile] | 5.5 | 17.1 | 81.3 | 73.2 | 7.6 | 9.60 | 4 | 9.28 | 4
